Measured values published in patent publication US20260109732A1, “LIPID AMINES” (ModernaTX, Inc., priority 2021, published 2026).
Structures can show the parent of a compound that is named as a salt.

Columns and labels:
[1] = Diameter and PDI from DLS measurements of mRNA nanoparticles with lipid amines; type: physicochemical
Method in brief: (§1)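 DLS gave size and PDI, and Ribogreen gave encapsulation, for luciferase- or CFTR-mRNA nanoparticles (N:P 4.93). Particles came from IL1/DSPC/cholesterol/PEG-DMG-2K mixed at pH 4, mRNA-loaded, neutralized with TRIS pH 8.12, and then treated with lipid amine SA50 in pH 7.5 buffer.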

HeLa cells [2] = assay: CFTR Protein Expression Assay in HeLa Cells; type: cell-based, Human; details: LNPs encapsulating CFTR mRNA, N=4 wells; 5 h serum-free then 24 h; immunofluorescence vs PBS control
Method in brief: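 Readout is fold-change in per-cell CFTR immunofluorescence intensity (488 nm, confocal imaging) relative to PBS-treated cells, from 4 replicate wells. LNPs encapsulating CFTR mRNA were applied serum-free for 5 h, followed by 24 h in complete medium before PFA fixation.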

HeLa cells [3] = assay: Luciferase Protein Expression Assay in HeLa Cells; type: cell-based, Human; details: LNPs encapsulating Luciferase mRNA, 25 ng per well, N=4 wells; 5 h serum-free then 24 h; ONE-Glo
Method in brief: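 Luminescence output, average RLU across N=4 wells, was measured with ONE-Glo after cell lysis. Before that, HeLa cells were exposed to 25 ng/well luciferase-mRNA nanoparticles (PBS control) for 5 h serum-free, then cultured overnight (24 h) in complete MEM.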

[4] = Encapsulation of mRNA nanoparticles with lipid amines using Ribogreen assay; type: physicochemical
Method in brief: as §1

[5] = CFTR mRNA nanoparticle with lipid amine
[6] = Luciferase mRNA nanoparticle modified with lipid amine

SMILES	Diameter (nm) [1, 5]	PDI [1, 5]	Diameter (nm) [1, 6]	PDI [1, 6]	Average fold-change in CFTR signal intensity per cell compared to buffer control ± standard deviation (HeLa cells [2])	Average Relative Light Units ± Standard Deviation (HeLa cells [3])	% Encapsulation (Ribogreen) [4, 5]	% Encapsulation (Ribogreen) [4, 6]
CC(C)CCC[C@@H](C)[C@H]1CC[C@H]2[C@@H]3CC=C4C[C@@H](OC(=O)CCCC(=O)N(CCCCCCCC(C)(C)N)CCC(C)(C)N)CC[C@]4(C)[C@H]3CC[C@]12C.Cl.Cl [SA141, (3S,8S,9S,10R,13R,14S,17R)-10,13-dimethyl-17-((R)-6-methylheptan-2-yl)-2,3,4,7,8,9,10,11,12,13,14,15,16,17-tetradecahydro-1H-cyclopenta[a]phenanthren-3-yl 5-((3-amino-3-methylbutyl)(8-amino-8-methylnonyl)amino)-5-oxopentanoate dihydrochloride]	70.8 nm	0.12	73 nm	0.15	14.9 ± 0.6 fold-change	35801.9 ± 8884.3 Relative Light Units	98.9%	98.9%
CC[C@H](CC[C@@H](C)[C@H]1CC[C@H]2[C@@H]3CC=C4C[C@@H](OC(=O)CCC(=O)N(CCCCCCCC(C)N)CCC(C)N)CC[C@]4(C)[C@H]3CC[C@]12C)C(C)C (stereo partly drawn) [SA163, (3S,8S,9S,10R,13R,14S,17R)-17-((2R,5R)-5-ethyl-6-methylheptan-2-yl)-10,13-dimethyl-2,3,4,7,8,9,10,11,12,13,14,15,16,17-tetradecahydro-1H-cyclopenta[a]phenanthren-3-yl 4-((3-aminobutyl)(8-aminononyl)amino)-4-oxobutanoate dihydrochloride]	70.6 nm	0.09	71 nm	0.17	11.3 ± 0.5 fold-change	30168 ± 7878.9 Relative Light Units	100%	99.1%
CC(C)CCC[C@@H](C)[C@H]1CC[C@H]2[C@@H]3CC=C4C[C@@H](OC(=O)N(CCCCCCCC(C)N)CCC(C)N)CC[C@]4(C)[C@H]3CC[C@]12C (stereo partly drawn) [SA151, (3S,8S,9S,10R,13R,14S,17R)-10,13-dimethyl-17-((R)-6-methylheptan-2-yl)-2,3,4,7,8,9,10,11,12,13,14,15,16,17-tetradecahydro-1H-cyclopenta[a]phenanthren-3-yl (3-aminobutyl)(8-aminononyl)carbamate dihydrochloride]	72.0 nm	0.14	72 nm	0.12	20.2 ± 1.3 fold-change	36345.5 ± 6730.7 Relative Light Units	98.2%	95.8%
CC(C)CCC[C@@H](C)[C@H]1CC[C@H]2[C@@H]3CC=C4C[C@@H](OC(=O)N(CCCCNCC(F)(F)CN)CC(F)(F)CN)CC[C@]4(C)[C@H]3CC[C@]12C [SA79, (3S,8S,9S,10R,13R,14S,17R)-10,13-dimethyl-17-((R)-6-methylheptan-2-yl)-2,3,4,7,8,9,10,11,12,13,14,15,16,17-tetradecahydro-1H-cyclopenta[a]phenanthren-3-yl (3-amino-2,2-difluoropropyl)(4-((3-amino-2,2-difluoropropyl)amino)butyl)carbamate trihydrochloride]	78.4 nm	0.13	74 nm	0.18	0.8 ± 0 fold-change	105.1 ± 20 Relative Light Units	97.9%	97.0%
CC(C)CCC[C@@H](C)[C@H]1CC[C@H]2[C@@H]3CC=C4C[C@@H](OC(=O)N(CCC(C)(C)N)CCC(C)(C)N)CC[C@]4(C)[C@H]3CC[C@]12C [SA158, (3S,8S,9S,10R,13R,14S,17R)-10,13-dimethyl-17-((R)-6-methylheptan-2-yl)-2,3,4,7,8,9,10,11,12,13,14,15,16,17-tetradecahydro-1H-cyclopenta[a]phenanthren-3-yl bis(3-amino-3-methylbutyl)carbamate dihydrochloride]	72.4 nm	0.15	79 nm	0.28	20.4 ± 1.3 fold-change	33097.8 ± 7405.1 Relative Light Units	98.3%	99.7%
CC(C)CCC[C@@H](C)[C@H]1CC[C@H]2[C@@H]3CC=C4C[C@@H](OC(=O)C(=O)N(CCCN)CCCCNCCCN)CC[C@]4(C)[C@H]3CC[C@]12C [SA66, (3S,8S,9S,10R,13R,14S,17R)-10,13-Dimethyl-17-((R)-6-methylheptan-2-yl)-2,3,4,7,8,9,10,11,12,13,14,15,16,17-tetradecahydro-1H-cyclopenta[a]phenanthren-3-yl 2-((3-aminopropyl)(4-((3-aminopropyl)amino)butyl)amino)-2-oxoacetate trihydrochloride]	75.7 nm	0.13	72 nm	0.18	2.4 ± 0.1 fold-change	13951.3 ± 6740.3 Relative Light Units	99.5%	88.2%
CC[C@H](CC[C@@H](C)[C@H]1CC[C@H]2[C@@H]3CC=C4C[C@@H](OC(=O)CCCC(=O)N(CCCCCCCC(C)N)CCC(C)N)CC[C@]4(C)[C@H]3CC[C@]12C)C(C)C (stereo partly drawn) [SA154, (3S,8S,9S,10R,13R,14S,17R)-17-((2R,5R)-5-ethyl-6-methylheptan-2-yl)-10,13-dimethyl-2,3,4,7,8,9,10,11,12,13,14,15,16,17-tetradecahydro-1H-cyclopenta[a]phenanthren-3-yl 5-((3-aminobutyl)(8-aminononyl)amino)-5-oxopentanoate dihydrochloride]	72.8 nm	0.13	73 nm	0.18	16.7 ± 0.8 fold-change	28128.6 ± 4655.3 Relative Light Units	99.1%	99.6%
CC(C)CCC[C@@H](C)[C@H]1CC[C@H]2[C@@H]3CC=C4C[C@@H](OC(=O)CN(CCCN)CCCCCCCCN)CC[C@]4(C)[C@H]3CC[C@]12C [SA71, (3S,8S,9S,10R,13R,14S,17R)-10,13-Dimethyl-17-((R)-6-methylheptan-2-yl)-2,3,4,7,8,9,10,11,12,13,14,15,16,17-tetradecahydro-1H-cyclopenta[a]phenanthren-3-yl N-(8-aminooctyl)-N-(3-aminopropyl)glycinate trihydrochloride]	74.3 nm	0.12	73 nm	0.15	6.0 ± 0.4 fold-change	32758.9 ± 5897.1 Relative Light Units	99.8%	99.1%
